Test results as given in patent US20220332733A1, “MATERIAL FOR WAVELENGTH CONVERSION, WAVELENGTH CONVERSION MEMBER, LIGHT EMITTING DEVICE, AND COMPOUND USED FOR SAME” (FUJIFILM Corporation, priority 2021, published 2022).

Key:
Format in all cases: physicochemical
[1] = Relative fluorescence intensity of fluorescent latex dispersion; settings: for Relative Fluorescence Intensity: relative to 6 μmol/g of the same compound, at emission maximum wavelength, dispersion diluted 200 times; for fluorescence intensity of fluorescent latex as the compound amount is increased (in words): compared with comparative compound (1), summary of Table 1
Procedure: As latex particles, particles having an average particle diameter of 150 nm, which were prepared by polymerizing a mixture of styrene and an acrylic acid in a mass ratio of 9:1 in a state of being dispersed in water, were used. The average particle diameter was measured using a dynamic light scattering method using Zetasizer Nano ZS (trade name, manufactured by Malvern Panalytical Ltd.) based on the above-described measurement conditions. 5 mL of THF was added dropwise to 25 mL of the latex dispersion with a solid content of 2% (solid content mass: 500 mg) prepared as above, and the mixture was stirred for 10 minutes. 2.5 mL of a THF solution of a test compound (any one of the compound (1-1), the compound (1-2), the compound (2-1), or the comparative compound (1)) was added dropwise thereto for 15 minutes. In Table 1, μmol/g in the column of compound amount indicates the number of moles of the compound used with respect to 1 g of the solid content of the latex. Completion of the dropwise addition of the test compound was followed by stirring for 30 minutes and concentration under reduced pressure to remove THF. After that, the particles were precipitated by centrifugation, followed by addition of ultrapure water and redispersion to manufacture fluorescent latex dispersions Nos. 101 to 104, 201, 202, 301 to 303, and c11 to c14 with a concentration of solid contents of 2 mass %.
The relative fluorescence intensity of the fluorescent latex dispersion with a concentration of solid contents of 2 mass % manufactured as above at an emission maximum wavelength was evaluated. The evaluation was performed using a latex dispersion diluted 200 times with ultrapure water with the use of a fluorescence spectrophotometer RF-5300PC (trade name) manufactured by Shimadzu Corporation for measurement of the emission maximum wavelength and the fluorescence intensity at the emission maximum wavelength.
In the respective test compounds, based on the fluorescence intensity at the emission maximum wavelength with a compound amount of 6 μmol/g, fluorescence intensities at the emission maximum wavelength with other compound amounts were evaluated as the relative fluorescence intensity.

[2] = Absorption characteristics of compound (molar absorption coefficient, half-width) in chloroform; settings: for Half-Width: at maximal absorption wavelength
Procedure: Using a spectrophotometer UV-3600 (trade name) manufactured by Shimadzu Corporation, a molar absorption coefficient ϵ (1/mol·cm) and a half-width at a maximal absorption wavelength were measured and evaluated based on the following evaluation ranks. The half-width means a width (distance) between two wavelengths showing half the intensity of the maximal value at the maximum absorption wavelength. In the table, the evaluation of the molar absorption coefficient ϵ is described in the column of ϵ. As a measurement solvent, chloroform was used.
In this test, a molar absorption coefficient at evaluation rank “B” or higher (S to B) is regarded as acceptable, and due to the fact that the half-width is preferably narrow from the viewpoint of an improvement of color reproducibility, a half-width at evaluation rank “A” or higher (S or A) is regarded as acceptable.

[3] = Solubility of compound in solvents or raw material monomers, visual; settings: summary of Table 3
Procedure: The solubility in the following solvents or media A to G as raw material monomers of a resin was evaluated. The evaluation method is as follows: 0.1 ml of a solvent was added to […] of each compound to dissolve the compound, and the solubility was visually determined based on the following evaluation ranks. In this test, evaluation rank “B” or higher is an acceptable level.

[4] = compound amount 24 μmol/g latex solids
[5] = compound amount 48 μmol/g latex solids
[6] = compound amount 100 μmol/g latex solids

Compound | Relative Fluorescence Intensity [1, 4] | Relative Fluorescence Intensity [1, 5] | Relative Fluorescence Intensity [1, 6] | ε (molar absorption coefficient at maximal absorption wavelength) [2] | Half-Width [2] | solubility in the solvent or raw material monomer (in words) [3] | fluorescence intensity of fluorescent latex as the compound amount is increased (in words) [1]
CCOC(=O)C1=C(C)C2=C(c3cc(-c4ccc(C(C)(C)C)cc4)cc(-c4ccc(C(C)(C)C)cc4)c3)c3c(C)c(C(=O)OCC)c(C)n3[B-](F)(F)[N+]2=C1C [Comparative Compound (1), reference compound] | 3 times as large as No. c11 | 5 times as large as No. c11 | 6 times as large as No. c11 | D (less than 100,000) | S (equal to or less than 30 nm) | poor solubility | 
CC1=C(C(=O)OC2C(C(C)(C)C)CC(C)CC2C(C)(C)C)C(N)=[N+]2C1=C(C)c1c(C)c(C(=O)OC3C(C(C)(C)C)CC(C)CC3C(C)(C)C)c(N)n1[B-]2(F)F (centres unmarked) [Compound (1-1)] | 4 times as large as No. 101 | 7 times as large as No. 101 | 12 times as large as No. 101 | S (equal to or greater than 130,000) | S (equal to or less than 30 nm) | excellent solubility | higher fluorescence intensity
CC1=C(C(=O)OC2C(C(C)(C)C)CC(C)CC2C(C)(C)C)C(N)=[N+]2C1=C(C)c1c(C)c(C(=O)OC3C(C(C)(C)C)CC(C)CC3C(C)(C)C)c(N)n1[B-]2(F)C(F)(F)F (centres unmarked) [Compound (2-1)] |  | 7 times as large as No. 301 | 12 times as large as No. 301 | S (equal to or greater than 130,000) | S (equal to or less than 30 nm) | excellent solubility | higher fluorescence intensity
CC1CC(C(C)(C)C)C(OC(=O)C2=C(c3ccccc3)C3=Cc4c(-c5ccccc5)c(C(=O)OC5C(C(C)(C)C)CC(C)CC5C(C)(C)C)c(N)n4[B-](F)(F)[N+]3=C2N)C(C(C)(C)C)C1 (centres unmarked) [Compound (1-2)] |  |  | 10 times as large as No. 201 | S (equal to or greater than 130,000) | A (equal to or greater than 31 nm and equal to or less than 35 nm) |  | higher fluorescence intensity
